PubChem BioAssay (NCI)
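Assay format: 96-well plates, 48-hour exposure. TGI: total growth inhibition.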

Legend:
Assay in all cases: DTP human tumour cell line panel, 48 h
MOLT-4 leukemia = test system: MOLT-4 leukemia
A549 NSCLC = test system: A549 NSCLC
UACC-62 melanoma = test system: UACC-62 melanoma
HL-60(TB) leukemia = test system: HL-60(TB) leukemia
SW-620 colon = test system: SW-620 colon
NCI-H23 lung = test system: NCI-H23 lung
IGROV1 ovarian = test system: IGROV1 ovarian
CCRF-CEM leukemia = test system: CCRF-CEM leukemia
NCI-H522 lung = test system: NCI-H522 lung
SNB-78 CNS = test system: SNB-78 CNS
KM12 colon = test system: KM12 colon
786-0 renal = test system: 786-0 renal
RXF 393 renal = test system: RXF 393 renal
SF-539 CNS = test system: SF-539 CNS
SN12C renal = test system: SN12C renal
NCI-H226 lung = test system: NCI-H226 lung
OVCAR-4 ovarian = test system: OVCAR-4 ovarian
COLO 205 colon = test system: COLO 205 colon
RPMI-8226 leukemia = test system: RPMI-8226 leukemia
HOP-92 NSCLC = test system: HOP-92 NSCLC
KM20L2 colon = test system: KM20L2 colon
UACC-257 melanoma = test system: UACC-257 melanoma
CAKI-1 renal = test system: CAKI-1 renal
SK-OV-3 ovarian = test system: SK-OV-3 ovarian
A498 renal = test system: A498 renal
OVCAR-5 ovarian = test system: OVCAR-5 ovarian
EKVX NSCLC = test system: EKVX NSCLC
HCT-15 colon = test system: HCT-15 colon
TK-10 renal = test system: TK-10 renal
K-562 leukemia = test system: K-562 leukemia
M14 melanoma = test system: M14 melanoma
SK-MEL-28 melanoma = test system: SK-MEL-28 melanoma
SF-295 CNS = test system: SF-295 CNS
M19-MEL melanoma = test system: M19-MEL melanoma
SK-MEL-5 melanoma = test system: SK-MEL-5 melanoma
DMS 114 small cell lung = test system: DMS 114 small cell lung
SF-268 CNS = test system: SF-268 CNS
OVCAR-8 ovarian = test system: OVCAR-8 ovarian
UO-31 renal = test system: UO-31 renal
HOP-18 NSCLC = test system: HOP-18 NSCLC
LXFL 529 NSCLC = test system: LXFL 529 NSCLC
SK-MEL-2 melanoma = test system: SK-MEL-2 melanoma
DLD-1 colon = test system: DLD-1 colon
HT29 colon = test system: HT29 colon
ACHN renal = test system: ACHN renal
HOP-62 NSCLC = test system: HOP-62 NSCLC
MALME-3M melanoma = test system: MALME-3M melanoma
SNB-75 CNS = test system: SNB-75 CNS
DMS 273 small cell lung = test system: DMS 273 small cell lung
U251 CNS = test system: U251 CNS
SNB-19 CNS = test system: SNB-19 CNS
HCT-116 colon = test system: HCT-116 colon
HCC-2998 colon = test system: HCC-2998 colon
NCI-H460 lung = test system: NCI-H460 lung
LOX IMVI melanoma = test system: LOX IMVI melanoma
OVCAR-3 ovarian = test system: OVCAR-3 ovarian
SR leukemia = test system: SR leukemia

Measured: TGI

CCC1=C(C(C)=O)[C@@H]2CCCCC(C(=O)OC)[C@@H]2C1=O (some centres not stated)
not listed: LOX IMVI melanoma | OVCAR-3 ovarian | SR leukemia
> 100 µM: all other assays above

CCOC(=O)N1CCN(P(=O)(Nc2ccc3nc(NC(=O)OC)[nH]c3c2)Oc2ccccc2)CC1 (configuration not stated)
not listed: SF-539 CNS | EKVX NSCLC | SF-295 CNS | SK-MEL-5 melanoma | HOP-62 NSCLC | SNB-19 CNS | SR leukemia
> 100 µM: all other assays above

CC(=O)Nc1ccc(-c2nnc(SCC(=O)Nc3ccccc3)o2)cc1
not listed: A498 renal | EKVX NSCLC | SNB-19 CNS | HCC-2998 colon
> 100 µM: all other assays above
